Legend:
[1] = tested on: mouse aortic smooth muscle cell (mASMC); assay: mASMC proliferation by MTT assay; format: cell-based; details: PGD2 1 and 5 μM, 24 hr, confluent, quiescent SMC
Procedure: FIG. 6 depicts the effect of PGD2 on mASMC proliferation. Confluent, quiescent SMC were treated with varies concentrations of PGD2. Cell proliferation was determined by MTT assay at 24 hr. Values are mean±S.E.M. (*: P<0.005, by One-way ANOVA and t test, n=6).
The effect of PGD2 on mASMC proliferation was determined by MTT assay.

[2] = tested on: MAP Kinase (MAPK), phosphorylated ERK1/2, in mASMC; assay: MAPK activation in mASMC by Western analysis of SMC lysate; format: cell-based, mouse
Procedure: FIG. 7 depicts the effect of PGD2 on MAPK activation in mASMC. Confluent, quiescent SMC were treated with 1 μM PGD2 for varies timepoints. Cells were lysed and the lysate was analyzed for phosphorylated ERK1/2 (upper panel) and MARK (lower panel) by Western analysis, using antibodies to phosphotyrosine −ERK1/2 and ERK1/2, respectively.
The effect of PGD2 on activation of MAP Kinase (MAPK) was tested by Western analysis of SMC lysate.

CCCCC[C@H](O)/C=C/[C@H]1C(=O)C[C@H](O)[C@@H]1C/C=C\CCCC(=O)O [PGD2, Prostaglandin D2] was tested, and the “effect on mASMC proliferation” value [1] was “significantly promote mASMC proliferation”, the “level of phosphorylated-MAPK1/2 over time” value ([2]; 1 μM PGD2, after 15 min) was “returned to control levels” and the “activation of MAP Kinase (phosphorylated-MAPK1/2, 44 and 42 kDa)” value ([2]; 1 μM PGD2, as early as 10 min) was “induction of a phosphorylated-MAPK1/2”.

— patent US8165517B2, “Methods for identifying inhibitors of vascular injury” (The Trustees of the University of Pennsylvania, priority 2005, dated 2012)
